Results: patent US20100055047A1, “Methods for treating bronchial premalignancy and lung cancer” (priority 2008, published 2010)
Values after ≈ are worked out from the molar mass of the structure shown.

Columns and labels:
[1] = Aerodynamic size of aerosol droplets (7-Stage Cascade Impactor); type: physicochemical; settings: PARI compressor, LC star nebulizer, airflow 5 L/min
Description: Aerosol equipment. A PARI personal compressor and a LC star nebulizer were used in this study. The pressure should be 20-28 psi, and the aerosol generated rate should be 0.3±0.03 ml/min. Other clinically used aerosol equipment with similar functions can be used as well.
The aerodynamic diameters of aerosol droplets of 5-azacytidine were determined with extrusion-precipitation method using a 7-Stage Cascade Impactor (In-Tox Products, Albuquerque, N. Mex.) linked to PARI's personal compressor and LC star nebulizer system. 5-azacytidine solution (4 ml) was aerosolized under the airflow rate of 5 L/min. The condensed aerosol samples were collected at 3 different periods, from 1 to 1.5 min, from 3 to 3.5 min, and from 5 to 5.5 min. Aerodynamic size and fraction of aerosol with a particular size range were measured and calculated as per manufacturer's protocol. The data was mean±SD of the aerodynamic size based on weight (bars) and cumulative weight (line) from 3 independent experiments.

[2] = test system: Human NSCLC cell lines H358, H460, and A549; test: Cytotoxicity by MTT assay; type: cell-based; settings: 72 h, 3 days exposure, range over the cell lines, read-out: IC50 (concentration inhibiting 50 percent cell growth)
Description: Cytotoxicity of 5-azacytidine. Human NSCLC cell lines H358, H460, and A549 were exposed to different concentrations of 5-azacytidine in a 96-well plate for 3 days. The cytotoxicity was measured by MTT assay.

[3] = test system: DAPK and E-cadherin in human NSCLC cell lines A549 and H460; test: Demethylation function: re-expression of DAPK and E-cadherin by Western blotting; type: cell-based; settings: 24 hours exposure
Excerpt: DAPK and E-cadherin are important tumor suppressor proteins.

in vivo = settings: ICR, mouse, in vivo, iv
Description: (§1) Acute toxicity. The dose limiting toxicity of intravenous 5-azacytidine or decitabine is severe myelosuppression. In order to test whether aerosol or intratracheal injection can reduce the myelotoxicity or alter the toxicity profile, a dose of 90 mg/kg, the maximum tolerated dose (MTD) for intravenous injection (IV) of 5-azacytidine, was used to treat ICR mice by intravenous injection to mimic current therapy. The same dose of intratracheal injection (IT) of 5-azacytidine was used to mimic aerosol administration (35). Complete blood count (CBC), creatinine, liver function tests, and pathological evaluation of H/E staining of lungs, kidney and liver were performed to assess for toxicity differences.

ICR mice = test: in vivo
Description: as §1

[4] = Dose finding: lethal toxicity and MTD; type: in vivo, mice; settings: female, nude, mouse, in vivo, maximum dose causing 0% death, read-out: MTD (total dose)
Description: (§2) Dose finding. In order to use optimal therapeutic dose, the lethal toxicity and MTD for intratracheal injection (mimicking aerosol, IT) and intravenous injection (mimicking current most frequently used intravenous infusion and injection, IV) routes were determined in mice before the therapeutic experiment. Briefly, the nude mice (female, 6 weeks age) were inoculated with 4×10^6H460 cells intratracheally. One week later, they were randomly divided into several groups with 5 mice in each. Different groups of mice received different doses of IT 5Aza (range from 2.5 to 50 mg/kg qod×3) or IV 5Aza (range from 6.25 to 50 mg/k daily×6). The percentage of moribund mice in each group versus dose was used to simulate the dose response curves and determined the MTD. The maximum dose caused 0% death was defined as MTD. Under these experimental conditions, the MTD for both IT and IV 5Aza was 37.5 mg/kg or 112.5 mg/m^2 (total dose, FIG. 5-1). In considering the cytotoxicity results and the aerosol efficiency, 20% of IT MTD and 100% of IV MTD were used for the therapeutic studies.

[5] = test system: nude mice inoculated with H460 cells intratracheally; test: Dose finding: lethal toxicity and MTD; type: in vivo; settings: maximum dose causing 0% death
Description: as §2

[6] = test system: orthotopic human NSCLC xenograft H460 in nude mice; test: Antitumor efficacy, orthotopic H460 NSCLC xenograft; type: in vivo
Description: (§3) Antitumor efficacy. In order to evaluate the antitumor efficacy of the airway administered demethylating agent and to compare the result with systemic treatment, orthotopic human NSCLC xenograft models in nude mice were developed by inoculating the tumor cells in the respiratory airway (35,36). In the first experiment, the mice bearing lung tumors were randomly divided into 3 groups with 5 mice in each. Ten days after the H460 tumor inoculation, one group of mice were treated with intratracheal injection of 2.5 mg/kg of 5-azacytidine every other day for 3 injections, another group of mice were treated with IV injections of 6.25 mg/kg every day for 6 injections via tail vein, and the last group of mice remained untreated. […] The median survival is 50, 80 and >109 days for no treatment, IV 5Aza, and IT 5Aza group, respectively (FIG. 5-2). The similar results were obtained from another experiment using an orthotopic H358 NSCLC model. In the second experiment, the treatment schedules and doses were the same as the first experiment. The median survival is 60, 73, and 98 days for no treatment, IV 5Aza, and IT 5Aza group, respectively (FIG. 5-3). In both experiments, the differences between IT 5Aza and IV 5Aza are statistically significant (p<0.01).

[7] = test system: orthotopic H358 NSCLC model in nude mice; test: Antitumor efficacy, orthotopic H358 NSCLC xenograft; type: in vivo
Description: as §3

lung cancer patients = settings: intravenous or subcutaneous, not aerosol; one of the largest studies; transient; cited from earlier work
[8] = IT 2.5 mg/kg every other day for 3 injections
[9] = IV 6.25 mg/kg every day for 6 injections

Nc1ncn([C@@H]2O[C@H](CO)[C@@H](O)[C@H]2O)c(=O)n1 [5-azacytidine]
fraction of aerosol droplets measured between 0.2~3 μm in diameter [1]: about 97 % (weight) | IC50 [2]: 4 to 14 µg/mL (≈ 16.4 to 57.3 µM) | expressions of DAPK and E-cadherin [3]: significantly enhanced | MTD (in vivo): 90 mg/kg | highest white blood cell (WBC) reduction (ICR mice; ICR, mouse, in vivo, iv, 90 mg/kg, 4 day): 69±8.3% | lung toxicity (ICR mice; IT, 90 mg/kg): reversible lung toxicity that peaked on day 7, reduced on day 14 | highest white blood cell (WBC) reduction (ICR mice; IT, 90 mg/kg, day 7): 11±1.0% | Toxicity grade of lungs (ICR mice; IT, Day 7): 1-2 | hepatic or renal toxicities (ICR mice; mouse, in vivo, 90 mg/kg): no hepatic or renal toxicities | hepatic or renal toxicities (ICR mice; mouse, in vivo, iv, 90 mg/kg): no hepatic or renal toxicities | MTD ([4]; other: intratracheal injection, IT, qod×3): 37.5 mg/kg | MTD at 6 days ([4]; IV, daily×6): 37.5 mg/kg | MTD (total dose) ([5]; IT, qod×3): 112.5 mg/m^2 | MTD (total dose) ([5]; IV, daily×6): 112.5 mg/m^2 | median survival [6, 8]: > 109 days | median survival [6, 9]: 80 days | median survival [7, 8]: 98 days | median survival [7, 9]: 73 days | partial remission in lung cancer patients (lung cancer patients): one of 24 lung cancer patients had a partial remission
